Assay results taken from patent US20220096535A1, “COMBINATION DRUG THERAPIES OF PDE-5 INHIBITORS AND INHALED NITRIC OXIDE” (BELLEROPHON THERAPEUTICS, priority 2019, published 2022).

Assay: Drug-drug interaction study between pulsed, inhaled nitric oxide and sildenafil in healthy volunteers
Procedure: Inhaled Nitric Oxide (iNO) has been approved for use in infants with hypoxic respiratory failure. Nitric oxide is a selective pulmonary vasodilator, whose action is mediated by the cyclic guanosine monophosphate (cGMP) pathway. […] The objective of this study is to investigate the potential pharmacodynamic interaction between pulsed iNO and sildenafil in healthy volunteers.
Five healthy volunteers received sildenafil for 24 hours prior to the addition of iNO. Changes in pharmacodynamics parameters such as Heart Rate, Blood Pressure, and Oxygen Saturation after dosing with both drugs was assessed for 27 hours and hourly for 4 hours post iNO discontinuation.
FIG. 7 illustrates the protocol design for this study. Briefly, on Day 1, subjects were dosed with sildenafil alone. One dose of 20 mg sildenafil was administered every […] on day 1 for a total of 3 doses on day 1. Vital signs (heart rate, blood pressure, and oxygen saturation) were assessed beginning 1 hour prior to administration of sildenafil and every 30 minutes until 2.5 hours after each dose of sildenafil. Adverse events were also monitored. On days 2-3, the sildenafil regimen was continued as administered on day 1, and supplemented with 27.5 hours of pulsed iNO therapy at 75 mcg/kg individual body weight (IBW)/hr (INOPulse). Vital signs were assessed beginning 1 hour prior to administration of iNO and every 30 minutes until 2.5 hours after each dose of sildenafil. Upon discontinuation of iNO, vital signs were measured hourly for a 4-hour period, and subjects were monitored for syncope and lightheadedness. Nitric oxide metabolites were measured throughout administration of iNO and for 4 hours post-discontinuation of iNO.

Structure (SMILES)	Synergistic interaction (hypotensive drug-drug interaction) between iNO and sildenafil (even at peak levels of metabolites, all volunteers)	Other adverse events (iNO 75 mcg/kg IBW/hr co-administered with 20 mg sildenafil)	Syncope, lightheadedness, or signs of rebound upon discontinuation of iNO (monitored for 4 hours after iNO discontinuation, sildenafil background)	Systolic and diastolic blood pressures during co-administration of iNO, compared to first 3 doses of sildenafil alone (pulsed iNO 75 mcg/kg IBW/hr for 27.5 hours with 20 mg sildenafil, sildenafil doses 4 and 5, and peak nitric oxide metabolites (doses 6 and 7))	Blood pressure after dosing with sildenafil alone (5 healthy volunteers, 20 mg sildenafil every 6 hours, all 3 doses on day 1, within 2.5 hours after dosing)
[N]=O [iNO, nitric oxide]	No synergistic interaction	no other adverse events were identified	no instances of syncope, lightheadedness, or signs of possible rebound	no further decline	–
CCCc1nn(C)c2c(=O)[nH]c(-c3cc(S(=O)(=O)N4CCN(C)CC4)ccc3OCC)nc12 [sildenafil]	–	–	–	–	drop in blood pressure
